Experiment: Delivery of various NSAIDs through human skin, effect of propylene glycol, static cells (Example 8)
Type: in vitro ADME
Conditions: 10% enhancer; for Avg 24 Hour % Dose: ethanol:water 70:30, pH about 7, human skin; for effect of propylene glycol on total delivery (percent of original dose) at twenty four hours: 0 to 20% PG
Excerpt: All the tested formulations included ethanol and water at a 70:30 weight ratio and were neutralized with base to a pH of about 7.

Row | SMILES | Avg 24 Hour % Dose (0% PG) [%] | Avg 24 Hour % Dose (5% PG) [%] | Avg 24 Hour % Dose (10% PG) [%] | Avg 24 Hour % Dose (20% PG) [%] | Avg 24 Hour % Dose (15% PG) [%] | effect of propylene glycol on total delivery (percent of original dose) at twenty four hours
1 | O=C(O)Cc1ccccc1Nc1c(Cl)cccc1Cl [Diclofenac] | 18.7 | 29.7 | 35.3 | 45.2 |  | 
2 | CC(C)Cc1ccc(C(C)C(=O)O)cc1 (stereo not shown) [Ibuprofen] | 61.7 | 57.9 | 56.5 | 28.3 | 50.1 | 
3 | CC(C(=O)O)c1cccc(C(=O)c2ccccc2)c1 (stereo not shown) [Ketoprofen] | 9.1 | 10.3 | 12.0 | 27.0 |  | 
4 | O=C(c1ccccc1)c1ccc2n1CCC2C(=O)O (stereo not shown) [Ketorolac] | 10.8 | 27.1 | 25.0 | 19.3 |  | intermediate
5 | CN1C(C(=O)Nc2ccccn2)=C(O)c2ccccc2S1(=O)=O [Piroxicam] | 66.3 |  | 55.1 | 63.5 |  | substantially neutral
